Measured values published in PMC5218480 (PLoS ONE, 2017).

System: MV-4-11 cells
Test: Gene expression microarray analysis (Affymetrix PrimeView) and GSEA
Assay type: cell-based, human
Design: RFU PODN (11730768_x_at) / Fold change /veh PODN (11730768_x_at) / RFU LINC00158 (11744669_a_at) / Fold change /veh LINC00158 (11744669_a_at) / RFU DUSP10 (11751237_a_at) / Fold change /veh DUSP10 (11751237_a_at) / RFU ID3 (11757404_x_at) / Fold change /veh ID3 (11757404_x_at) / RFU PLEKHG5 (11737974_s_at) / Fold change /veh PLEKHG5 (11737974_s_at) / RFU LRRC4B (11730491_at) / Fold change /veh LRRC4B (11730491_at) / RFU GIMAP4 (11747438_a_at) / Fold change /veh GIMAP4 (11747438_a_at) / RFU KRT8 (11758183_x_at) / Fold change /veh KRT8 (11758183_x_at) / RFU CNN1 (11734310_a_at) / Fold change /veh CNN1 (11734310_a_at) / RFU VPS37D (11726825_at) / Fold change /veh VPS37D (11726825_at) / RFU C10orf10 (11716522_x_at) / Fold change /veh C10orf10 (11716522_x_at) / RFU KIR2DL2 /// KIR2DL4 /// KIR2DL5A /// KIR2DL5B /// KIR2DS1 /// KIR2DS2 /// KIR2DS3 /// KIR2DS4 /// KIR3DL3 /// KIR3DL3 /// KIR3DS1 (11738374_at) / Fold change /veh KIR2DL2 /// KIR2DL4 /// KIR2DL5A /// KIR2DL5B /// KIR2DS1 /// KIR2DS2 /// KIR2DS3 /// KIR2DS4 /// KIR3DL3 /// KIR3DL3 /// KIR3DS1 (11738374_at) / RFU C1QL1 (11718748_at) / Fold change /veh C1QL1 (11718748_at) / RFU TMPRSS4 (11747572_a_at) / Fold change /veh TMPRSS4 (11747572_a_at) / RFU HAMP (11756126_x_at) / Fold change /veh HAMP (11756126_x_at) / RFU RNFT2 (11725882_a_at) / Fold change /veh RNFT2 (11725882_a_at) / RFU NR4A2 (11747474_a_at) / Fold change /veh NR4A2 (11747474_a_at) / RFU ABCC12 (11746883_a_at) / Fold change /veh ABCC12 (11746883_a_at) / RFU TMEM136 (11760407_x_at) / Fold change /veh TMEM136 (11760407_x_at) / RFU CLDN22 /// WWC2 (11732394_at) / Fold change /veh CLDN22 /// WWC2 (11732394_at) / RFU HLA-DPB1 (11760878_x_at) / Fold change /veh HLA-DPB1 (11760878_x_at) / RFU SPINT1 (11716480_a_at) / Fold change /veh SPINT1 (11716480_a_at) / RFU GAP43 (11754022_s_at) / Fold change /veh GAP43 (11754022_s_at) / RFU A4GNT (11735810_at) / Fold change /veh A4GNT (11735810_at) / RFU PRB3 (11715151_x_at) / Fold change /veh PRB3 (11715151_x_at) / RFU TUBB4B (11761932_at) / Fold change /veh TUBB4B (11761932_at) / RFU CAPN14 (11732068_a_at) / Fold change /veh CAPN14 (11732068_a_at) / RFU TMCC2 (11721928_a_at) / Fold change /veh TMCC2 (11721928_a_at) / RFU IRGQ (11745062_a_at) / Fold change /veh IRGQ (11745062_a_at) / RFU FAM174B (11720279_a_at) / Fold change /veh FAM174B (11720279_a_at) / RFU TMPRSS4 (11748680_a_at) / Fold change /veh TMPRSS4 (11748680_a_at) / RFU FAM212B (11763350_a_at) / Fold change /veh FAM212B (11763350_a_at) / RFU PLEKHG5 (11743358_a_at) / Fold change /veh PLEKHG5 (11743358_a_at) / RFU ZSCAN30 (11745921_a_at) / Fold change /veh ZSCAN30 (11745921_a_at) / RFU CMKLR1 (11741424_a_at) / Fold change /veh CMKLR1 (11741424_a_at) / RFU LOC101060620 /// MAPK8IP1 (11723275_at) / Fold change /veh LOC101060620 /// MAPK8IP1 (11723275_at) / RFU SPTSSB (11747773_x_at) / Fold change /veh SPTSSB (11747773_x_at) / RFU PRSS12 (11739890_at) / Fold change /veh PRSS12 (11739890_at) / RFU BIN1 (11741810_x_at) / Fold change /veh BIN1 (11741810_x_at) / RFU WNT11 (11732464_a_at) / Fold change /veh WNT11 (11732464_a_at) / RFU C10orf10 (11716521_a_at) / Fold change /veh C10orf10 (11716521_a_at) / RFU C5orf56 (11738089_at) / Fold change /veh C5orf56 (11738089_at) / RFU CYB561 (11721691_x_at) / Fold change /veh CYB561 (11721691_x_at) / RFU ANKRD19P (11752326_a_at) / Fold change /veh ANKRD19P (11752326_a_at) / RFU OR2T12 /// OR2T33 /// OR2T8 (11738714_s_at) / Fold change /veh OR2T12 /// OR2T33 /// OR2T8 (11738714_s_at) / RFU VCAN (11748164_a_at) / Fold change /veh VCAN (11748164_a_at) / RFU JSRP1 (11732532_at) / Fold change /veh JSRP1 (11732532_at) / RFU KRTAP10-11 (11738290_x_at) / Fold change /veh KRTAP10-11 (11738290_x_at) / RFU MYO3A (11730013_a_at) / Fold change /veh MYO3A (11730013_a_at) / RFU EBF3 (11725865_a_at) / Fold change /veh EBF3 (11725865_a_at) / RFU CAMK2N1 (11719241_x_at) / Fold change /veh CAMK2N1 (11719241_x_at) / RFU C5orf56 (11738088_a_at) / Fold change /veh C5orf56 (11738088_a_at) / RFU OLFML3 (11715873_a_at) / Fold change /veh OLFML3 (11715873_a_at) / RFU LOC100653217 /// NTM (11731650_a_at) / Fold change /veh LOC100653217 /// NTM (11731650_a_at) / RFU MAPK11 (11762145_a_at) / Fold change /veh MAPK11 (11762145_a_at) / RFU FIZ1 (11724087_x_at) / Fold change /veh FIZ1 (11724087_x_at) / RFU OASL (11726364_x_at) / Fold change /veh OASL (11726364_x_at) / RFU SOX15 (11748057_x_at) / Fold change /veh SOX15 (11748057_x_at) / RFU CD79A (11719716_a_at) / Fold change /veh CD79A (11719716_a_at) / RFU HIST1H1D (11736915_at) / Fold change /veh HIST1H1D (11736915_at) / RFU CASKIN2 (11723855_a_at) / Fold change /veh CASKIN2 (11723855_a_at) / RFU LOC730098 (11760151_x_at) / Fold change /veh LOC730098 (11760151_x_at) / RFU OR4N2 (11742367_at) / Fold change /veh OR4N2 (11742367_at) / RFU PRRT2 (11749266_a_at) / Fold change /veh PRRT2 (11749266_a_at) / RFU SNX32 (11753110_a_at) / Fold change /veh SNX32 (11753110_a_at) / RFU CDHR5 (11726645_a_at) / Fold change /veh CDHR5 (11726645_a_at) / RFU RCAN1 (11760418_a_at) / Fold change /veh RCAN1 (11760418_a_at) / RFU FAM167A (11723789_a_at) / Fold change /veh FAM167A (11723789_a_at) / RFU FAM26E (11764081_at) / Fold change /veh FAM26E (11764081_at) / RFU ISYNA1 (11749810_s_at) / Fold change /veh ISYNA1 (11749810_s_at) / RFU ACY1 (11761880_at) / Fold change /veh ACY1 (11761880_at) / RFU 11764098_at / Fold change /veh 11764098_at / RFU SAMD14 (11745864_x_at) / Fold change /veh SAMD14 (11745864_x_at) / RFU NPB (11741838_a_at) / Fold change /veh NPB (11741838_a_at) / RFU TMPRSS6 (11731388_a_at) / Fold change /veh TMPRSS6 (11731388_a_at) / RFU KRTAP10-2 (11738614_at) / Fold change /veh KRTAP10-2 (11738614_at) / RFU ARHGAP8 /// PRR5-ARHGAP8 (11727945_x_at) / Fold change /veh ARHGAP8 /// PRR5-ARHGAP8 (11727945_x_at) / RFU KRTAP5-7 /// NADSYN1 (11734609_at) / Fold change /veh KRTAP5-7 /// NADSYN1 (11734609_at) / RFU RASL12 (11751679_a_at) / Fold change /veh RASL12 (11751679_a_at) / RFU CDKN2B (11736163_a_at) / Fold change /veh CDKN2B (11736163_a_at) / RFU PRF1 (11729649_at) / Fold change /veh PRF1 (11729649_at) / RFU, ZNF638 /// ZNF638-IT1 / Fold change vs veh, ZNF638 /// ZNF638-IT1 / RFU, PANK3 / Fold change vs veh, PANK3 / RFU, SH3YL1 / Fold change vs veh, SH3YL1 / RFU, ZEB2 / Fold change vs veh, ZEB2 / RFU, NRIP1 / Fold change vs veh, NRIP1 / RFU, PTTG1IP / Fold change vs veh, PTTG1IP / RFU, CAPN2 / Fold change vs veh, CAPN2 / RFU, MED14 / Fold change vs veh, MED14 / RFU, SNORA58 / Fold change vs veh, SNORA58 / RFU, C1orf63 / Fold change vs veh, C1orf63 / RFU, LRRFIP1 / Fold change vs veh, LRRFIP1 / RFU, NDUFAF7 / Fold change vs veh, NDUFAF7 / RFU, SLC12A2 / Fold change vs veh, SLC12A2 / RFU, IBTK / Fold change vs veh, IBTK / RFU, ESF1 / Fold change vs veh, ESF1 / Fold change vs veh, TMEM50B / RFU, TAOK1 / Fold change vs veh, TAOK1 / RFU, ACBD3 / Fold change vs veh, ACBD3 / RFU, TMA16 / Fold change vs veh, TMA16 / RFU, RWDD3 / Fold change vs veh, RWDD3 / RFU, BCAT1 / Fold change vs veh, BCAT1 / RFU, EDEM3 / Fold change vs veh, EDEM3 / RFU, TMEM33 / Fold change vs veh, TMEM33 / RFU, WDR75 / Fold change vs veh, WDR75 / RFU, AHCTF1 / Fold change vs veh, AHCTF1 / RFU, TFRC / Fold change vs veh, TFRC / RFU, ZDHHC17 / Fold change vs veh, ZDHHC17 / RFU, NOM1 / Fold change vs veh, NOM1 / RFU, ARL8B / Fold change vs veh, ARL8B / RFU, ZBTB11 / Fold change vs veh, ZBTB11 / RFU, TAMM41 / Fold change vs veh, TAMM41 / RFU, KIAA1704 /// LOC100996395 / Fold change vs veh, KIAA1704 /// LOC100996395 / RFU, ING1 / Fold change vs veh, ING1 / RFU, TRMT61B / Fold change vs veh, TRMT61B / RFU, FUBP3 / Fold change vs veh, FUBP3 / RFU, TP53 / Fold change vs veh, TP53 / RFU, TNKS2 / Fold change vs veh, TNKS2 / RFU, ZFP14 / Fold change vs veh, ZFP14 / RFU, ACTR2 / Fold change vs veh, ACTR2 / RFU, PPP3R1 / Fold change vs veh, PPP3R1 / RFU, PIK3R1 / Fold change vs veh, PIK3R1 / RFU, HNRNPA1 / Fold change vs veh, HNRNPA1 / RFU, RNF170 / Fold change vs veh, RNF170 / RFU, ZNF28 / Fold change vs veh, ZNF28 / RFU, RNGTT / Fold change vs veh, RNGTT / RFU, OGT / Fold change vs veh, OGT / RFU, BRD1 / Fold change vs veh, BRD1 / RFU, MARS / Fold change vs veh, MARS / RFU, ZNF655 / Fold change vs veh, ZNF655 / RFU, FAHD1 / Fold change vs veh, FAHD1 / RFU, BDP1 / Fold change vs veh, BDP1 / RFU, LRRCC1 / Fold change vs veh, LRRCC1 / RFU, ARID1A / Fold change vs veh, ARID1A / RFU, ZNF146 / Fold change vs veh, ZNF146 / RFU, ZNF330 / Fold change vs veh, ZNF330 / RFU, GPN3 / Fold change vs veh, GPN3 / RFU, C9orf123 / Fold change vs veh, C9orf123 / RFU, N4BP2L2 / Fold change vs veh, N4BP2L2 / RFU, ARFIP1 / Fold change vs veh, ARFIP1 / RFU, FAM179B / Fold change vs veh, FAM179B / RFU, BCL10 / Fold change vs veh, BCL10 / RFU, UHRF1BP1L / Fold change vs veh, UHRF1BP1L / RFU, BET1 / Fold change vs veh, BET1 / RFU, CNOT2 / Fold change vs veh, CNOT2 / RFU, ZNF268 / Fold change vs veh, ZNF268 / Fold change vs veh, ZNF507 / RFU, DGCR2 / Fold change vs veh, DGCR2 / RFU, WDSUB1 / Fold change vs veh, WDSUB1 / Fold change vs veh, HSP90B1 /// MIR3652 / RFU, ADSS / Fold change vs veh, ADSS / RFU, GK / Fold change vs veh, GK / RFU, ZNF148 / Fold change vs veh, ZNF148 / RFU, TAF9 / Fold change vs veh, TAF9 / RFU, SLC1A5 / Fold change vs veh, SLC1A5 / RFU, SLMO2 / Fold change vs veh, SLMO2 / RFU, ABCC4 / Fold change vs veh, ABCC4 / RFU, LOC101060439 /// RAP1B / Fold change vs veh, LOC101060439 /// RAP1B / RFU, RFX7 / Fold change vs veh, RFX7 / RFU, GTPBP10 / Fold change vs veh, GTPBP10 / RFU, CNEP1R1 / Fold change vs veh, CNEP1R1 / RFU, BIVM-ERCC5 /// ERCC5 / Fold change vs veh, BIVM-ERCC5 /// ERCC5 / RFU, ILF3 / Fold change vs veh, ILF3 / RFU 11762660_at / Fold change /veh 11762660_at / RFU VCAN (11757783_s_at) / Fold change /veh VCAN (11757783_s_at) / RFU DDX43 (11728927_at) / Fold change /veh DDX43 (11728927_at) / RFU KRT8 (11758188_x_at) / Fold change /veh KRT8 (11758188_x_at) / RFU NKD1 (11759106_at) / Fold change /veh NKD1 (11759106_at) / RFU SRD5A1 (11742802_a_at) / Fold change /veh SRD5A1 (11742802_a_at) / RFU TPSAB1 /// TPSB2 (11721975_s_at) / Fold change /veh TPSAB1 /// TPSB2 (11721975_s_at) / RFU GSTM3 (11746129_a_at) / Fold change /veh GSTM3 (11746129_a_at) / RFU IL23R (11737362_x_at) / Fold change /veh IL23R (11737362_x_at) / RFU TMEM51 (11727254_a_at) / Fold change /veh TMEM51 (11727254_a_at) / RFU PIWIL2 (11732686_x_at) / Fold change /veh PIWIL2 (11732686_x_at) / RFU ORM1 (11744905_x_at) / Fold change /veh ORM1 (11744905_x_at) / RFU CCDC152 (11743942_at) / Fold change /veh CCDC152 (11743942_at) / RFU ECM1 (11717891_a_at) / Fold change /veh ECM1 (11717891_a_at) / RFU IL23R (11748794_a_at) / Fold change /veh IL23R (11748794_a_at) / RFU TNFAIP8L3 (11732012_x_at) / Fold change /veh TNFAIP8L3 (11732012_x_at) / RFU MBOAT4 (11741988_at) / Fold change /veh MBOAT4 (11741988_at) / RFU 11764193_at / Fold change /veh 11764193_at / RFU TMEM53 (11763286_at) / Fold change /veh TMEM53 (11763286_at) / RFU MAGEB2 (11727129_at) / Fold change /veh MAGEB2 (11727129_at) / RFU TMEM200A (11744735_a_at) / Fold change /veh TMEM200A (11744735_a_at) / RFU CCDC152 (11751479_a_at) / Fold change /veh CCDC152 (11751479_a_at) / RFU FAM211A (11726209_a_at) / Fold change /veh FAM211A (11726209_a_at) / RFU RGS16 (11746705_a_at) / Fold change /veh RGS16 (11746705_a_at) / RFU VCAN (11755009_s_at) / Fold change /veh VCAN (11755009_s_at) / RFU RHOB (11743442_s_at) / Fold change /veh RHOB (11743442_s_at) / RFU RGS16 (11720943_a_at) / Fold change /veh RGS16 (11720943_a_at) / RFU RGS16 (11720944_at) / Fold change /veh RGS16 (11720944_at) / RFU, VPS4B / Fold change vs veh, VPS4B / RFU, CREB1 / Fold change vs veh, CREB1 / RFU, DNAJC13 / Fold change vs veh, DNAJC13 / RFU, GNAQ / Fold change vs veh, GNAQ / RFU, CDK5R1 / Fold change vs veh, CDK5R1 / RFU, ZRANB3 / Fold change vs veh, ZRANB3 / RFU, CUL4A / Fold change vs veh, CUL4A / RFU, CCNY / Fold change vs veh, CCNY / RFU, UFL1 / Fold change vs veh, UFL1 / RFU, COG3 / Fold change vs veh, COG3 / RFU, DIAPH2 / Fold change vs veh, DIAPH2 / RFU, SKA2 / Fold change vs veh, SKA2 / RFU, AFF3 / Fold change vs veh, AFF3 / RFU, LMF1 / Fold change vs veh, LMF1 / RFU, IPO11 / Fold change vs veh, IPO11 / RFU, DFFB / Fold change vs veh, DFFB / RFU, FOXP1 / Fold change vs veh, FOXP1 / RFU, CARD8 / Fold change vs veh, CARD8 / RFU, STRN3 / Fold change vs veh, STRN3 / RFU, ADK / Fold change vs veh, ADK / RFU, RASSF2 / Fold change vs veh, RASSF2 / RFU, WIPF1 / Fold change vs veh, WIPF1 / RFU, LARP1B / Fold change vs veh, LARP1B / RFU, RASA1 / Fold change vs veh, RASA1 / RFU, RB1 / Fold change vs veh, RB1 / RFU, PPFIA1 / Fold change vs veh, PPFIA1 / RFU, MAT2A / Fold change vs veh, MAT2A / RFU, CCT5 / Fold change vs veh, CCT5 / RFU, WDR92 / Fold change vs veh, WDR92 / RFU, CUX1 / Fold change vs veh, CUX1 / RFU, TTC7A / Fold change vs veh, TTC7A / RFU, TMEM135 / Fold change vs veh, TMEM135 / RFU, DEPTOR / Fold change vs veh, DEPTOR / RFU, CPM / Fold change vs veh, CPM / RFU, DNAJB6 / Fold change vs veh, DNAJB6 / RFU, CACNA2D3 / Fold change vs veh, CACNA2D3 / RFU, DTX4 / Fold change vs veh, DTX4 / RFU, TFCP2 / Fold change vs veh, TFCP2 / RFU, GMCL1 /// GMCL1P1 / Fold change vs veh, GMCL1 /// GMCL1P1 / RFU, AEBP2 / Fold change vs veh, AEBP2 / RFU, SNHG1 /// SNORD22 /// SNORD25 /// SNORD26 /// SNORD27 /// SNORD28 /// SNORD29 /// SNORD31 / Fold change vs veh, SNHG1 /// SNORD22 /// SNORD25 /// SNORD26 /// SNORD27 /// SNORD28 /// SNORD29 /// SNORD31 / Fold change (Aza/veh), C12orf56 (ProbeSet 11735607_a_at) / Fold change (ACY-1035/veh), C12orf56 (ProbeSet 11735607_a_at) / Fold change (Aza/veh), FGFR1OP (ProbeSet 11751329_s_at) / Fold change (ACY-1035/veh), FGFR1OP (ProbeSet 11751329_s_at) / Fold change (Aza/veh), VPS36 (ProbeSet 11739960_a_at) / Fold change (ACY-1035/veh), VPS36 (ProbeSet 11739960_a_at) / RFU SYPL1 (11715823_x_at) / Fold change /veh SYPL1 (11715823_x_at) / RFU IGFBP7 (11715501_s_at) / Fold change /veh IGFBP7 (11715501_s_at) / RFU REEP3 (11722064_at) / Fold change /veh REEP3 (11722064_at) / RFU IGLL1 (11728026_x_at) / Fold change /veh IGLL1 (11728026_x_at): dose or concentration left out as unconfirmed
Conditions: MV-4-11 cells, 48 hours

Nc1ncn([C@@H]2O[C@H](CO)[C@@H](O)[C@H]2O)c(=O)n1 [azacitidine]
RFU GAP43 (11754022_s_at): 65.19 RFU
